Measurements taken from PubChem BioAssay AID2060497 (Molecular Pharmacology Branch, DTP, NCI, 2025).

Test system: 317291-083-R-J1-PDC complex spheroids, viability
Experiment: Anticancer human tumor 317291-083-R-J1-PDC patient-derived soft tissue sarcoma cell line growth inhibition [GQUAD]
Settings: for IC50: curve of first compound; for viability, T/C: stronger effect = lower value
Excerpt: DNA G-quadruplex Stabilizer Agents in Combinations in Complex Spheroids
A high-throughput screen of multi-cell type tumor spheroids was designed to identify active combinations of DNA G-quadruplex stabilizer agents and targeted small molecules. Complex spheroids include a stromal component modeled by human endothelial cells (HUVEC) and fibroblasts modeled by human mesenchymal stem cells (MSCs). The concentration ranges selected for each drug and investigational agent were based upon clinically achievable concentrations if the clinical Cmax of the agent was known.
Compounds. The drugs and investigational agents: pidnarulex (CX-5461; NSC782164), APTO-253 (NSC789042), BRACO-19 (NSC847499), peposertib (NSC802822), ceralasertib (NSC780249), elimusertib (NSC800525), camonsertib (NSC841442), AZD-1390 (NSC803789), olaparib (NSC753686), talazoparib (NSC767125), ART-558 (NSC835418), sotorasib (NSC818433), MRTX-1133 (NSC836407), SN-38 (NSC673596), topotecan (NSC609699), etoposide (NSC141540), doxorubicin (NSC123127), gemcitabine (NSC613327), 5-fluorouracil (NSC19893), paclitaxel (NSC125973), vemurafenib (NSC761431), panobinostat (NSC761190), R-306465 (JNJ-16241199; NSC773264), adavosertib (NSC754352), TP-3654 (NSC805149), carboplatin (NSC241240), KSQ-4279 (NSC840948), and staurosporine (NSC755774) were obtained from the National Cancer Institute (NCI) Developmental Therapeutics Program Chemical Repository (34). The FDA-approved anticancer drug set is available from the NCI Developmental Therapeutics Program. […] The stock solutions were prepared in dimethyl sulfoxide (DMSO, Sigma-Aldrich, St. Louis, MO, cat. D2650) at 800-fold the tested concentration and stored at -70 degrees C prior to their use. All drugs and investigational agents were tested over a range starting from a high concentration at or near the clinical Cmax and decreasing in half-log increments. If the clinical Cmax for an agent had not been determined, the highest concentration tested was 10 microM.
2.3 Cell Culture. All cells were maintained in an incubator at 37 degrees C and 5% CO2 with 95% humidity. The PDC lines were cultured according to standard operating procedures established by the NCI PDMR. All PDCs were thawed and cultured in Matrigel-coated flasks prepared with a working solution of 1X Ham's F-12 nutrient mix, without supplementation (Invitrogen, cat. 11765054), 100 U/mL penicillin-streptomycin (Invitrogen, cat. 15140122), and 2.5% Matrigel (Corning Inc., cat. 354248) for the first three passages. The 857933-349-R-J2-PDC line was cultured in 6C/Colon 1B media, which includes advanced DMEM/F-12 (Thermo Fisher Scientific, cat. 12634028), 10 mM HEPES (Thermo Fisher Scientific, cat. 15630080), 1X GlutaMAX supplement (Thermo Fisher Scientific, cat. 35050061), 0.1 mg/mL primocin (InvivoGen, cat. ant-pm-2), 10% defined fetal bovine serum, heat inactivated (HyClone Laboratories Inc., cat. SH30070.03HI), 50% L-WRN conditioned media (ATCC, cat. CRL-3276), 1.25 mM N-Acetyl-L-cysteine (Sigma-Aldrich, cat. A9165), 10 mM nicotinamide (Sigma-Aldrich, cat. N0636), 1X B-27 supplement (Thermo Fisher Scientific, cat. 17504044), 1X N-2 supplement (Thermo Fisher Scientific, cat. 17502048), 10 microM Y-27632 dihydrochloride (Tocris Bioscience, cat. 1254), and 50 ng/mL human EGF recombinant protein (Thermo Fisher Scientific, cat. PHG0311). The 485176-168-R4-J1-PDC line was cultured in Panc media, which includes all 6C/Colon 1B media components plus 100 ng/mL human FGF-10 (Thermo Fisher Scientific, cat. 100-26), 500 nM SB-431542 (Selleckchem, cat. S1067), and gastrin (Tocris, cat. 3006).
[…]

[1] = second compound 0.0316 µM, first compound 0.0316 µM
[2] = second compound 0.0316 µM, first compound 0.1 µM
[3] = second compound 0.0316 µM, first compound 0.316 µM
[4] = second compound 0.0316 µM, first compound 1 µM
[5] = second compound 0.0316 µM, first compound 3.16 µM
[6] = second compound 0.0316 µM, first compound 10 µM
[7] = second compound 0.1 µM, first compound 0.0316 µM
[8] = second compound 0.1 µM, first compound 0.1 µM
[9] = second compound 0.1 µM, first compound 0.316 µM
[10] = second compound 0.1 µM, first compound 1 µM
[11] = second compound 0.1 µM, first compound 3.16 µM
[12] = second compound 0.1 µM, first compound 10 µM
[13] = second compound 0.316 µM, first compound 0.0316 µM
[14] = second compound 0.316 µM, first compound 0.1 µM
[15] = second compound 0.316 µM, first compound 0.316 µM
[16] = second compound 0.316 µM, first compound 1 µM
[17] = second compound 0.316 µM, first compound 3.16 µM
[18] = second compound 0.316 µM, first compound 10 µM
[19] = second compound 1 µM, first compound 0.0316 µM
[20] = second compound 1 µM, first compound 0.1 µM
[21] = second compound 1 µM, first compound 0.316 µM
[22] = second compound 1 µM, first compound 1 µM
[23] = second compound 1 µM, first compound 3.16 µM
[24] = second compound 1 µM, first compound 10 µM
[25] = second compound 3.16 µM, first compound 0.0316 µM
[26] = second compound 3.16 µM, first compound 0.1 µM
[27] = second compound 3.16 µM, first compound 0.316 µM
[28] = second compound 3.16 µM, first compound 1 µM
[29] = second compound 3.16 µM, first compound 3.16 µM
[30] = second compound 3.16 µM, first compound 10 µM
[31] = second compound 10 µM, first compound 0.0316 µM
[32] = second compound 10 µM, first compound 0.1 µM
[33] = second compound 10 µM, first compound 0.316 µM
[34] = second compound 10 µM, first compound 1 µM
[35] = second compound 10 µM, first compound 3.16 µM
[36] = second compound 10 µM, first compound 10 µM
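Further: spheroids exposed to compounds for one week before readout.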
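Wherever viability, T/C is given: percent viability relative to DMSO vehicle wells taken as 100%.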

`Nc1ccn(C2OC(CO)C(O)C2(F)F)c(=O)n1` (centres undefined) + Cc1[nH]c2ccc(F)cc2c1-c1nc2c3cccnc3c3ncccc3c2[nH]1 gave an IC50 (second compound 0.0316 µM) of 44.8 nM, an IC50 (second compound 0.1 µM) of 42.8 nM and an IC50 (second compound 0.316 µM) of 32.8 nM. The IC50 (second compound 1 µM) was 37.1 nM, the IC50 (second compound 3.16 µM) was 35.1 nM and the IC50 (second compound 10 µM) was under 31.6 nM. It also gave a viability, T/C [1] of 63%, a viability, T/C [2] of 20.3% and a viability, T/C [3] of 11.9%. The viability, T/C [4] was 11%, the viability, T/C [5] was 11.8% and the viability, T/C [6] was 8.15%. It also gave a viability, T/C [7] of 57.9%, a viability, T/C [8] of 27.4% and a viability, T/C [9] of 14.8%. It also gave a viability, T/C [10] of 12.3%, a viability, T/C [11] of 11% and a viability, T/C [12] of 9.19%. The viability, T/C [13] was 51.2%, the viability, T/C [14] was 16.1% and the viability, T/C [15] was 13.1%. It also gave a viability, T/C [16] of 16.2%, a viability, T/C [17] of 10.3% and a viability, T/C [18] of 8.34%. For the same molecule, the viability, T/C [19] was 55.6%, the viability, T/C [20] was 15.8% and the viability, T/C [21] was 10.5%. The viability, T/C [22] was 9.19%, the viability, T/C [23] was 9.71% and the viability, T/C [24] was 8.18%. For the same molecule, the viability, T/C [25] was 52.8%, the viability, T/C [26] was 22.5% and the viability, T/C [27] was 12%. For the same molecule, the viability, T/C [28] was 12%, the viability, T/C [29] was 11.2% and the viability, T/C [30] was 10.7%. The viability, T/C [31] was 40.3%, the viability, T/C [32] was 13.2% and the viability, T/C [33] was 10.2%. It also gave a viability, T/C [34] of 8.15%, a viability, T/C [35] of 13.3% and a viability, T/C [36] of 9.1%.

Work on `O=C(c1cc(Cc2n[nH]c(=O)c3ccccc23)ccc1F)N1CCN(C(=O)C2CC2)CC1` + Cc1[nH]c2ccc(F)cc2c1-c1nc2c3cccnc3c3ncccc3c2[nH]1 yielded an IC50 (second compound 0.0316 µM) of over 10000 nM, an IC50 (second compound 0.1 µM) of over 10000 nM and an IC50 (second compound 0.316 µM) of over 10000 nM. It also gave an IC50 (second compound 1 µM) of over 10000 nM, an IC50 (second compound 3.16 µM) of 8800 nM and an IC50 (second compound 10 µM) of over 10000 nM. For the same molecule, the viability, T/C [1] was 97.2%, the viability, T/C [2] was 92.2% and the viability, T/C [3] was 91.8%. The viability, T/C [4] was 91.6%, the viability, T/C [5] was 80.6% and the viability, T/C [6] was 69.5%. It also gave a viability, T/C [7] of 108%, a viability, T/C [8] of 116% and a viability, T/C [9] of 93.4%. For the same molecule, the viability, T/C [10] was 94.8%, the viability, T/C [11] was 92.8% and the viability, T/C [12] was 65.3%. For the same molecule, the viability, T/C [13] was 101%, the viability, T/C [14] was 111% and the viability, T/C [15] was 101%. The viability, T/C [16] was 103%, the viability, T/C [17] was 92.8% and the viability, T/C [18] was 52.1%. For the same molecule, the viability, T/C [19] was 109%, the viability, T/C [20] was 112% and the viability, T/C [21] was 91.5%. For the same molecule, the viability, T/C [22] was 93.8%, the viability, T/C [23] was 90.3% and the viability, T/C [24] was 60.2%. The viability, T/C [25] was 81.6%, the viability, T/C [26] was 82.9% and the viability, T/C [27] was 72.8%. The viability, T/C [28] was 75.2%, the viability, T/C [29] was 69.6% and the viability, T/C [30] was 47.2%. It also gave a viability, T/C [31] of 105%, a viability, T/C [32] of 84.4% and a viability, T/C [33] of 96.3%. The viability, T/C [34] was 81.8%, the viability, T/C [35] was 98% and the viability, T/C [36] was 58.6%.
